Data set [1] relates to Subjects presenting with congestive heart failure who are refractory to high dose diuretic therapy. In words: Example 3: IV KW-3902 in subjects refractory to standard IV diuretic therapy. The format is in vivo, human. Conditions: 20-40 mg KW-3902 IV over 3-5 hours. Here is the method:
Changes in urine output are measured hourly. The subjects' creatinine clearance rate is measured every 3 hours. […] A dose of between about 20 mg and about 40 mg, preferably about 30 mg of KW-3902 in injectable form is infused through the IV line over the course of about 3 to about 5 hours, and preferably over the course of 4 hours. The subject receives continued treatment with furosemide. The subject's fluid intake and output, urine volume, serum and urine creatinine levels, electrolytes and cardiac function are monitored.

Data set [2] concerns hospitalized subject treated with maximum amounts of IV diuretic and still fluid overloaded. In words: Example 4: IV KW-3902 with continued furosemide in a hospitalized subject refractory to IV diuretic. It is filed as in vivo, human. As to conditions: 20-40 mg KW-3902 IV over 3-5 hours. Here is the method: A hospitalized subject who has been treated with maximum amounts of IV diuretic and is still symptomatic, fluid overloaded, or whose urine output is less than fluid intake is evaluated for further treatment. A dose of a KW-3902 between about 20 mg and about 40 mg, and preferably about 30 mg injectable form is infused through the IV line over the course of about 3 hours to about 5 hours, and preferably over the course of about 4 hours. […] The subject's fluid intake and output, urine volume, serum and urine creatinine levels, electrolytes and cardiac function are monitored.

Data set [3] has as its system subject with fluid overload and impaired renal function. As to the kind of experiment: Example 5: IV KW-3902 concurrent with diuretic therapy in fluid overload and impaired renal function. It is filed as in vivo, human. Conditions: 20-40 mg KW-3902 IV over 3-5 hours, concurrent with other diuretic therapy. As for the experimental part:
A subject with fluid overload, as manifested by peripheral edema, dyspnea, and/or other signs or symptoms presents themself to the physician's office or clinic. The subject has been on a therapy regimen that includes oral diuretics and, in addition, to needing a higher dose of diuretics to manage his/her fluid balance, the subject is now showing impaired renal function. […] The subject is administered a dose of about 20 mg to about 40 mg KW-3902 intravenously over about 3 to about 5 hours, preferably over the course of about 4 hours, concurrent with other diuretic therapy. The subject's fluid intake and output, urine volume, serum and urine creatinine levels, electrolytes and cardiac function are monitored.

The subject of data set [4] is subject with fluid overload. In words: Example 7: IV KW-3902 concurrent with diuretic therapy in fluid overload. The format is in vivo, human. Conditions: 20-40 mg KW-3902 IV over 3-5 hours. As for the experimental part:
A subject with fluid overload, as manifested by peripheral edema, dyspnea, and/or other signs or symptoms presents to the physician's office or clinic. The subject has been on a therapy regimen that includes oral diuretics and needs a higher dose of diuretics to manage his/her fluid balance. To delay or prevent the onset of renal impairment and/or to delay the need to use higher dosages of standard diuretics, the subject is administered a dose of about 20 mg to about 40 mg, and preferably a dose of about 30 mg, KW-3902 IV, administered over the course of about 3 to about 5 hours, and preferably over the course of about 4 hours. The subject also receives concurrent with their diuretic therapy. The subject's fluid intake and output, urine volume, serum and urine creatinine levels, electrolytes and cardiac function are monitored.

In data set [5] the test system is Subjects presenting with New York Heart Association Class II-IV CHF and estimated creatinine clearance between 20 mL/min and 80 mL/min.
Procedure: The subjects are taking an oral loop diuretic. The subjects can also present with a one of the following: history of seizure, stroke within two years, brain tumor, brain surgery within two years, encephalitis within two years, history of penetrating head trauma, closed head injury with loss of consciousness over 30 minutes within two years, history of alcohol withdrawal seizure, advanced Alzheimer's disease, or advanced multiple sclerosis (“at risk” subjects). The subjects' medical history, physical examination, classification of CHF, vital signs, body weight, CHF signs and symptom scores, Holter monitor recording, chest X-ray, CBC chemistries, creatinine clearance, fluid intake, and urine output are determined on pre-treatment days −2 to −1, days 1 to 3 of the Treatment Period, day 4/early Termination and a follow up contact at day 30. […] On day 1, the composition comprising KW-3902 (or placebo) is administered as a monotherapy. 6 hours after administration of KW-3902, IV loop diuretic is given to all treatment groups as needed. […] Final laboratory data are collected on day 4 or early termination. Follow-up phone contact is conducted on day 30.

For `CCCn1c(=O)c2[nH]c(C34CC5CC(CC3C5)C4)nc2n(CCC)c1=O` [KW-3902, 8-(3-noradamantyl)-1,3-dipropylxanthine], in data set [1] (continued furosemide), the “seizures during the course of treatment” value is recorded as “do not experience seizures”. In data set [1] (compared to placebo), the creatinine clearance entry is “improvement in creatinine clearance” and the “hourly urine volume over the ensuing 9 hours” value is “increased hourly urine volume”. For the same molecule, in data set [2], the diuresis result was “improved diuresis” and the seizures entry is recorded as “do not experience seizures”. For the same molecule, in data set [3], the creatinine clearance entry is “improved diuresis and creatinine clearance”; the diuresis entry is reported as “improved diuresis”; the “seizures throughout the course of therapy” value was “do no experience seizures”. In data set [4], the diuresis result is reported as “improved diuresis”, the renal function entry was “renal function is maintained” and the “seizure throughout the course of treatment” value is on record as “do not experience a seizure”. For the same molecule, the “kidney function as measured by serum creatinine levels compared to the baseline levels” value in data set [5] (20-40 mg (preferably about 30 mg) KW-3902 IV over about 4 hours, days 1-3, effect greater than placebo) is on record as “improvement in kidney function”. Further, the “seizures throughout the treatment period” value in data set [5] (at risk subjects) is listed as “do not experience seizures”. The “diuresis, as measured by urine output” value in data set [5] (combination of KW-3902 and non adenosine-modifying diuretics such as furosemide) was “synergistic beneficial effect on diuresis”.

These data come from patent US20080242684A1, “METHODS OF ADMINISTRATION OF ADENOSINE A1 RECEPTOR ANTAGONISTS” (priority 2007, published 2008).
